# In PubChem BioAssay AID1259407 (Chemical Carcinogenesis Research Information System (CCRIS), 2018):
# Activity calls are given as the source filed them. How the calls were made is not given here.
# System: CCRIS mutagenicity, Ames/micronucleus/aberration tests
# Assay: CCRIS mutagenicity studies
smiles,measurement,setting,value
Nc1ccc2ccccc2c1,mutagenic call,"Test System: AMES SALMONELLA TYPHIMURIUM, Strain/Indicator: TA98(1,8-DNP6), Metabolic Activation: PLANT CELLS, Method: PREINCUBATION",inactive; negative
same,mutagenic call,"Test System: AMES SALMONELLA TYPHIMURIUM, Strain/Indicator: TA98, Metabolic Activation: HAMSTER, LIVER, S-9, AROCLOR 1254 (30%), Method: PREINCUBATION",active; positive
same,mutagenic call,"Test System: AMES SALMONELLA TYPHIMURIUM, Strain/Indicator: TA98, Metabolic Activation: HUMAN, RED BLOOD CELL, CYTOSOL, Method: PREINCUBATION",active; positive
same,mutagenic call,"Test System: AMES SALMONELLA TYPHIMURIUM, Strain/Indicator: TA98, Metabolic Activation: MOUSE, LIVER, S-9, PHENOBARBITAL AND BETA-NAPHTHOFLAVONE, Method: STANDARD PLATE",active; positive
same,mutagenic call,"Test System: AMES SALMONELLA TYPHIMURIUM, Strain/Indicator: TA98, Metabolic Activation: MOUSE, LIVER, S-9, PHENOBARBITAL, BETA-NAPHTHOFLAVONE, ISOSAFROLE, ETHANOL, PREGNENOLONE AND 16ALPHA-CARBONITRILE, Method: STANDARD PLATE",active; positive
same,mutagenic call,"Test System: AMES SALMONELLA TYPHIMURIUM, Strain/Indicator: TA98, Metabolic Activation: NONE, Method: PREINCUBATION",inactive; negative
same,mutagenic call,"Test System: AMES SALMONELLA TYPHIMURIUM, Strain/Indicator: TA98, Metabolic Activation: NONE, Method: STANDARD PLATE",inactive; negative
same,mutagenic call,"Test System: AMES SALMONELLA TYPHIMURIUM, Strain/Indicator: TA98, Metabolic Activation: PLANT CELLS, Method: PREINCUBATION",inactive; negative
same,mutagenic call,"Test System: AMES SALMONELLA TYPHIMURIUM, Strain/Indicator: TA98, Metabolic Activation: RAT, LIVER, S-9, AROCLOR 1254 (2%), Method: STANDARD PLATE",active; positive
same,mutagenic call,"Test System: AMES SALMONELLA TYPHIMURIUM, Strain/Indicator: TA98, Metabolic Activation: RAT, LIVER, S-9, AROCLOR 1254 (30%), Method: PREINCUBATION",active; positive
same,mutagenic call,"Test System: AMES SALMONELLA TYPHIMURIUM, Strain/Indicator: TA98, Metabolic Activation: RAT, LIVER, S-9, AROCLOR 1254, Method: STANDARD PLATE",inactive; negative
same,mutagenic call,"Test System: AMES SALMONELLA TYPHIMURIUM, Strain/Indicator: TA98, Metabolic Activation: RAT, LIVER, S-9, KANECHLOR 500 OR PHENOBARBITAL AND BETA-NAPHTHOFLAVONE, Method: PREINCUBATION",active; positive
same,mutagenic call,"Test System: AMES SALMONELLA TYPHIMURIUM, Strain/Indicator: TA100, Metabolic Activation: HAMSTER, LIVER, S-9, AROCLOR 1254 (30%), Method: PREINCUBATION",active; positive
same,mutagenic call,"Test System: AMES SALMONELLA TYPHIMURIUM, Strain/Indicator: TA100, Metabolic Activation: NONE, Method: PREINCUBATION",inactive; negative
same,mutagenic call,"Test System: AMES SALMONELLA TYPHIMURIUM, Strain/Indicator: TA100, Metabolic Activation: NONE, Method: STANDARD PLATE",inactive; negative
same,mutagenic call,"Test System: AMES SALMONELLA TYPHIMURIUM, Strain/Indicator: TA100, Metabolic Activation: RAT, LIVER, S-9, AROCLOR 1254 (10%) (WITHOUT ADDED COFACTORS), Method: STANDARD PLATE",inactive; negative
same,mutagenic call,"Test System: AMES SALMONELLA TYPHIMURIUM, Strain/Indicator: TA100, Metabolic Activation: RAT, LIVER, S-9, AROCLOR 1254 (30%), Method: PREINCUBATION",active; positive
same,mutagenic call,"Test System: AMES SALMONELLA TYPHIMURIUM, Strain/Indicator: TA100, Metabolic Activation: RAT, LIVER, S-9, AROCLOR 1254, Method: STANDARD PLATE",active; positive
same,mutagenic call,"Test System: AMES SALMONELLA TYPHIMURIUM, Strain/Indicator: TA100, Metabolic Activation: RAT, LIVER, S-9, AROCLOR (10%), Method: STANDARD PLATE",active; positive
same,mutagenic call,"Test System: AMES SALMONELLA TYPHIMURIUM, Strain/Indicator: TA100, Metabolic Activation: RAT, LIVER, S-9, KANECHLOR 500 OR PHENOBARBITAL AND BETA-NAPHTHOFLAVONE, Method: PREINCUBATION",active; positive
same,mutagenic call,"Test System: AMES SALMONELLA TYPHIMURIUM, Strain/Indicator: TA100, Metabolic Activation: RAT, LIVER, S-9, KC500 OR PHENOBARBITAL, Method: LIQUID SUSPENSION",active; positive
same,mutagenic call,"Test System: AMES SALMONELLA TYPHIMURIUM, Strain/Indicator: TA100, Metabolic Activation: RAT, LIVER, S-9, TCDD, Method: STANDARD PLATE",active; positive
same,mutagenic call,"Test System: AMES SALMONELLA TYPHIMURIUM, Strain/Indicator: TA100, Metabolic Activation: S-9, Method: FLUCTUATION TEST",active; positive
same,mutagenic call,"Test System: AMES SALMONELLA TYPHIMURIUM, Strain/Indicator: TA1535, Metabolic Activation: RAT, LIVER, S-9, AROCLOR 1254, Method: STANDARD PLATE",active; positive
same,mutagenic call,"Test System: AMES SALMONELLA TYPHIMURIUM, Strain/Indicator: TA1535, Metabolic Activation: RAT, LIVER, S-9, AROCLOR (10%), Method: STANDARD PLATE",active; positive
same,mutagenic call,"Test System: AMES SALMONELLA TYPHIMURIUM, Strain/Indicator: TA1535, Metabolic Activation: RAT, LIVER, S-9, PHENOBARBITAL, Method: STANDARD PLATE",active; positive
same,mutagenic call,"Test System: AMES SALMONELLA TYPHIMURIUM, Strain/Indicator: YG1024, Metabolic Activation: PLANT CELLS, Method: PREINCUBATION",inactive; negative
same,mutagenic call,"Test System: CHINESE HAMSTER V-79, Strain/Indicator: V-79/6-THIOGUANINE, Metabolic Activation: NONE, Method: SUSPENSION/PLATE",inactive; negative
same,mutagenic call,"Test System: CHINESE HAMSTER V-79, Strain/Indicator: V-79/6-THIOGUANINE, Metabolic Activation: RAT, LIVER, S-9, PHENOBARBITAL AND BETA-NAPHTHOFLAVONE, Method: SUSPENSION/PLATE",active; positive
same,mutagenic call,"Test System: E. COLI, Strain/Indicator: WP2 UVRA, Metabolic Activation: HAMSTER, LIVER, S-9, AROCLOR 1254, Method: STANDARD PLATE",inactive; negative
same,mutagenic call,"Test System: E. COLI, Strain/Indicator: WP2 UVRA, Metabolic Activation: HAMSTER, LIVER, S-9, Method: STANDARD PLATE",inactive; negative
same,mutagenic call,"Test System: E. COLI, Strain/Indicator: WP2 UVRA, Metabolic Activation: MOUSE, LIVER, S-9, AROCLOR 1254, Method: STANDARD PLATE",inactive; negative
same,mutagenic call,"Test System: E. COLI, Strain/Indicator: WP2 UVRA, Metabolic Activation: MOUSE, LIVER, S-9, Method: STANDARD PLATE",inactive; negative
same,mutagenic call,"Test System: E. COLI, Strain/Indicator: WP2 UVRA, Metabolic Activation: NONE, Method: STANDARD PLATE",inactive; negative
same,mutagenic call,"Test System: E. COLI, Strain/Indicator: WP2 UVRA, Metabolic Activation: RAT, LIVER, S-9, AROCLOR 1254, Method: STANDARD PLATE",inactive; negative
same,mutagenic call,"Test System: E. COLI, Strain/Indicator: WP2 UVRA, Metabolic Activation: RAT, LIVER, S-9, Method: STANDARD PLATE",inactive; negative
